The values below are quoted from earlier work in article PMC7599555 (Biomedicines, 2020).

The test system of this data set is TTX-sensitive channels; NaV1.8.

Take `NC1=N[C@H](O)[C@H]2[C@H]3O[C@]4(O)O[C@@H]([C@@H](O)[C@@]2(N1)[C@@H]4O)[C@]3(O)CO` [TTX, tetrodotoxin]: the “inhibition of TTX-sensitive channels and NaV1.8” value is on record as “fully inhibits TTX-sensitive channels but not NaV1.8”.
